From ChEMBL document CHEMBL3044766, “Synthesis, antitubercular and antifungal activities of heteroaryl-substituted oxiranes derived from BaylisHillman adducts” (2012) come the findings set out here.

Activity calls are given as the source filed them. The rule behind the calls is not given here.

Experiment [1] has as its system Aspergillus fumigatus. Description: Antifungal activity against Aspergillus fumigatus at 100 ug/ml after 24 hr by disc diffusion method. It counts as functional. To be noted: read-out: DIZ. For orientation: In agar diffusion tests the substance spreads into inoculated agar from a disc or well.
In experiment [2] the test system is Candida albicans. Nature of the experiment: Antifungal activity against Candida albicans at 100 ug/ml after 24 hr by disk diffusion method. It counts as functional. Conditions: read-out: DIZ.
Experiment [3] relates to Mycobacterium tuberculosis. Nature of the experiment: Growth inhibition of Mycobacterium tuberculosis H37Rv at 10 ug/ml after 4 weeks by Lowenstein-Jensen method. Type of experiment: functional, organism-based.
In experiment [4] the test system is Mycobacterium tuberculosis. Nature of the experiment: Growth inhibition of Mycobacterium tuberculosis H37Rv at 100 ug/ml after 4 weeks by Lowenstein-Jensen method. It counts as functional, organism-based.
Experiment [5] relates to Mycobacterium tuberculosis. Description: Growth inhibition of Mycobacterium tuberculosis H37Rv at 1 ug/ml after 4 weeks by Lowenstein-Jensen method. Type of experiment: functional, organism-based.

On to `Clc1ccccc1C(c1ccccc1)(c1ccccc1)n1ccnc1` [CLOTRIMAZOLE], for which the figures for the zone of inhibition at 100 µg/mL in experiment [1] and in experiment [2] were 21 mm and 20 mm, respectively.
Regarding `COC(=O)C1(C(O)c2cccs2)CO1` (stereo not given), the zone of inhibition at 100 µg/mL in experiment [1] and in experiment [2] was 12 mm throughout. In addition, the “growth inhibition (GI)” value in experiment [3], in experiment [4] and in experiment [5] was “Active” throughout.
As to `NC(=O)c1cnccn1`, the “growth inhibition (GI)” value in experiment [3], in experiment [4] and in experiment [5] was “Active” each time.
For `COC(=O)C1(C(O)c2ccc[nH]2)CO1` (stereo not given), the zone of inhibition at 100 µg/mL amounted to 12 mm in experiment [1] and 9 mm in experiment [2]. Further, the “growth inhibition (GI)” value in experiment [3], in experiment [4] and in experiment [5] was “Active” throughout.
Consider `CCOC(=O)C1(C(O)c2ccco2)CO1` (stereo not given), for which the zone of inhibition at 100 µg/mL turned out to be 9 mm in experiment [1] and 8 mm in experiment [2]. For the same compound, the “growth inhibition (GI)” value in experiment [3], in experiment [4] and in experiment [5] was “Active” each time.
As for `COC(=O)C1(C(O)c2ccco2)CO1` (stereo not given), the zone of inhibition at 100 µg/mL in experiment [1] turned out to be 8 mm; in experiment [2], 7 mm. Further, the “growth inhibition (GI)” value in experiment [3], in experiment [4] and in experiment [5] was “Active” each time.
Turning to `CCOC(=O)C1(C(O)c2cccs2)CO1` (stereo not given), the zone of inhibition at 100 µg/mL is 10 mm in experiment [1] and 9 mm in experiment [2]. The “growth inhibition (GI)” value in experiment [3], in experiment [4] and in experiment [5] was “Active” throughout.
Take `CCOC(=O)C1(C(O)c2ccc[nH]2)CO1` (stereo not given): the zone of inhibition at 100 µg/mL in experiment [1] and in experiment [2] was 10 mm throughout. In addition, the “growth inhibition (GI)” value in experiment [3], in experiment [4] and in experiment [5] was “Active” throughout.
